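Cells were grown in 96-well plates and exposed to each compound for 48 hours at five concentrations; endpoints were interpolated linearly between bracketing concentrations, or set to the highest concentration if not reached. GI50: concentration for 50% inhibition of growth. At the TGI there is no net growth.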
Assays:
Assay in all cases: DTP human tumour cell line panel, 48 h
786-0 renal = tested on: 786-0 renal
A498 renal = tested on: A498 renal
A549 NSCLC = tested on: A549 NSCLC
ACHN renal = tested on: ACHN renal
BT-549 breast = tested on: BT-549 breast
CAKI-1 renal = tested on: CAKI-1 renal
CCRF-CEM leukemia = tested on: CCRF-CEM leukemia
COLO 205 colon = tested on: COLO 205 colon
DU-145 prostate = tested on: DU-145 prostate
EKVX NSCLC = tested on: EKVX NSCLC
HCC-2998 colon = tested on: HCC-2998 colon
HCT-116 colon = tested on: HCT-116 colon
HCT-15 colon = tested on: HCT-15 colon
HOP-62 NSCLC = tested on: HOP-62 NSCLC
HOP-92 NSCLC = tested on: HOP-92 NSCLC
HS 578T breast = tested on: HS 578T breast
HT29 colon = tested on: HT29 colon
IGROV1 ovarian = tested on: IGROV1 ovarian
KM12 colon = tested on: KM12 colon
LOX IMVI melanoma = tested on: LOX IMVI melanoma
M14 melanoma = tested on: M14 melanoma
MALME-3M melanoma = tested on: MALME-3M melanoma
MCF7 breast = tested on: MCF7 breast
MDA-MB-231 breast = tested on: MDA-MB-231 breast
MDA-MB-435 = tested on: MDA-MB-435
MOLT-4 leukemia = tested on: MOLT-4 leukemia
NCI-H226 lung = tested on: NCI-H226 lung
NCI-H23 lung = tested on: NCI-H23 lung

## COc1cc2c(cc1OCc1ccccc1)N=CC1C[C@@H](O)CN1C2=O (stereo not given in full)
786-0 renal
  GI50: 2.26 µM
  TGI: 7.68 µM
A498 renal
  GI50: 2.06 µM
  TGI: 5.25 µM
A549 NSCLC
  GI50: 19.2 µM
  TGI: > 100 µM
ACHN renal
  GI50: 5.83 µM
  TGI: 50 µM
BT-549 breast
  GI50: 2.47 µM
  TGI: 9.54 µM
CAKI-1 renal
  GI50: 1.24 µM
  TGI: 6.78 µM
CCRF-CEM leukemia
  GI50: 1.79 µM
  TGI: 12.2 µM
COLO 205 colon
  GI50: 3.77 µM
  TGI: > 30.9 µM
DU-145 prostate
  GI50: 4.04 µM
  TGI: 72.1 µM
EKVX NSCLC
  GI50: 24.2 µM
  TGI: 56.4 µM
HCC-2998 colon
  GI50: 17.1 µM
  TGI: 37.1 µM
HCT-116 colon
  GI50: 9.77 µM
  TGI: 42.2 µM
HCT-15 colon
  GI50: 15.2 µM
  TGI: > 82.1 µM
HOP-62 NSCLC
  GI50: 2.4 µM
  TGI: 9.52 µM
HOP-92 NSCLC
  GI50: 3.99 µM
  TGI: 39 µM
HS 578T breast
  GI50: 4.84 µM
  TGI: 18.6 µM
HT29 colon
  GI50: 7.22 µM
  TGI: > 100 µM
IGROV1 ovarian
  GI50: 6.89 µM
  TGI: > 60.7 µM
KM12 colon
  GI50: 4.04 µM
  TGI: 32 µM
LOX IMVI melanoma
  GI50: 2.37 µM
  TGI: 6.5 µM
M14 melanoma
  GI50: 4.71 µM
  TGI: 19.5 µM
MALME-3M melanoma
  GI50: 9.08 µM
  TGI: 26 µM
MCF7 breast
  GI50: 5.06 µM
  TGI: > 100 µM
MDA-MB-231 breast
  GI50: 3.01 µM
  TGI: 16.9 µM
MDA-MB-435
  GI50: 3.88 µM
  TGI: 14.7 µM
MOLT-4 leukemia
  GI50: 2.01 µM
  TGI: 5.51 µM
NCI-H226 lung
  GI50: 23.6 µM
  TGI: > 100 µM
NCI-H23 lung
  GI50: 7.83 µM

Reference: PubChem BioAssay (NCI)
